Series [1] concerns the target T1, Interleukin-23 receptor (Homo sapiens, UniProt Q5VWK5).
T1 sequence (Q5VWK5 whole entry): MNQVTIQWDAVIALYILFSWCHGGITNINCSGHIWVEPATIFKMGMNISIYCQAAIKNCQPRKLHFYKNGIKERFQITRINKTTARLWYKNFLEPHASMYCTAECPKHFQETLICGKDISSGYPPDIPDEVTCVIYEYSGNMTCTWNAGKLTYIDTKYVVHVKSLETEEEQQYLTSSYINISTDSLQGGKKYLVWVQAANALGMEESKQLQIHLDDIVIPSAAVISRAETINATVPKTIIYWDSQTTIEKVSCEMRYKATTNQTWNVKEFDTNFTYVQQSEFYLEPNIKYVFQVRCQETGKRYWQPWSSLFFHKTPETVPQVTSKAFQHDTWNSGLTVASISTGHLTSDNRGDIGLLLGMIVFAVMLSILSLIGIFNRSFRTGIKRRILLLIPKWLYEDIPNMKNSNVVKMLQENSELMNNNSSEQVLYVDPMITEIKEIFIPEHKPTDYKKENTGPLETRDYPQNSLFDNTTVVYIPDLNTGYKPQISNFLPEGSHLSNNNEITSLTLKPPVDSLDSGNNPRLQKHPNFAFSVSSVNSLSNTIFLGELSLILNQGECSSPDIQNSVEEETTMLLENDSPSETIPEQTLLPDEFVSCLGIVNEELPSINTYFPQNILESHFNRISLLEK
Description: Inhibition of interleukin-23 binding to human interleukin-23 receptor incubated for 2 hrs by competitive binding ELISA. For orientation: In an ELISA, binding on a coated surface is turned into a signal by an enzyme label.

The target of series [2] is T1, Interleukin-23 receptor. Briefly: Inhibition of interleukin-23 receptor in human DB cells assessed as reduction in IL-23-stimulated STAT3 phosphorylation incubated for 30 mins by HTRF assay. It is filed as cell-based. In general terms: Time-resolved FRET reads energy transfer from a long-lived donor to a nearby acceptor.
The nature of series [3]: Half life in simulated gastric fluid at 20 uM by LC-MS/MS analysis. Format: ADME.
Series [4] is described as follows: Half life in simulated intestinal fluid at 20 uM by LC-MS/MS analysis. Format: ADME.

In general, IC50 refers to the midpoint of a concentration-inhibition curve. Usually half-life stands for the time in which the quantity being followed falls by half. A higher half-life goes with slow loss.

With `CC(=O)N[C@H]1CCSC[C@@H](C(=O)N[C@@H](Cc2ccc(OCCN)cc2)C(=O)N[C@@H](Cc2ccc3ccccc3c2)C(=O)NC(C)(C)C(=O)N[C@@H](CCC(=O)O)C(=O)N[C@@H](CC(N)=O)C(=O)NCC(N)=O)NC(=O)[C@H](CCC(N)=O)NC(=O)[C@H](Cc2c[nH]c3ccccc23)NC(=O)[C@H]([C@@H](C)O)NC(=O)[C@H](CCC(N)=O)NC1=O`, the IC50 on Interleukin-23 receptor [1] and on Interleukin-23 receptor [2] was under 10 nM each time. Further, the half-life at 20 µM was 2 to 3 h in series [3] and under 1 h in series [4].

`CC(=O)NCCCC[C@H](NC(=O)C(C)(C)NC(=O)[C@H](Cc1ccc2ccccc2c1)NC(=O)[C@H](Cc1ccc(OCCN)cc1)NC(=O)[C@@H]1CSCC[C@H](NC(C)=O)C(=O)N[C@@H](CCC(N)=O)C(=O)N[C@@H]([C@@H](C)O)C(=O)N[C@@H](Cc2c[nH]c3ccccc23)C(=O)N[C@@H](CCC(N)=O)C(=O)N1)C(=O)N[C@@H](CCC(N)=O)C(=O)NCC(N)=O`: the IC50 at Interleukin-23 receptor [1] was 10 to 25 nM; on Interleukin-23 receptor [2] it was under 10 nM. Also, the half-life at 20 µM is under 1 h in series [3] and 2 to 3 h in series [4].

Turning to `CC(=O)N[C@H]1CCSC[C@@H](C(=O)N[C@@H](Cc2ccc(OCCN)cc2)C(=O)N[C@@H](Cc2c[nH]c3ccccc23)C(=O)N[C@@H](CCC(C)C)C(=O)N[C@@H](CCC(=O)O)C(=O)N[C@@H](CC(N)=O)C(=O)NCC(N)=O)NC(=O)[C@H](CCC(N)=O)NC(=O)[C@H](Cc2c[nH]c3ccccc23)NC(=O)[C@H]([C@@H](C)O)NC(=O)[C@H](CCC(N)=O)NC1=O`, the IC50 at Interleukin-23 receptor [1] was 10 to 25 nM; on Interleukin-23 receptor [2], under 10 nM. Also, the half-life at 20 µM in series [3] and in series [4] was under 1 h throughout.

For `CC(=O)NCCCC[C@H](NC(=O)[C@](C)(CCCN)NC(=O)[C@H](Cc1ccc2ccccc2c1)NC(=O)[C@H](Cc1ccc(OCCN)cc1)NC(=O)[C@@H]1CSCC[C@H](NC(C)=O)C(=O)N[C@@H](CCC(N)=O)C(=O)N[C@@H]([C@@H](C)O)C(=O)N[C@@H](Cc2c[nH]c3ccccc23)C(=O)N[C@@H](CCC(N)=O)C(=O)N1)C(=O)N[C@@H](CC(N)=O)C(=O)NCC(N)=O`, the IC50 on Interleukin-23 receptor [1] and at Interleukin-23 receptor [2] was under 10 nM throughout. For the same compound, the half-life at 20 µM in series [3] and in series [4] was 3 to 6 h throughout.

Regarding `CC(=O)NCCCC[C@H](NC(=O)C(C)(C)NC(=O)[C@H](Cc1ccc2ccccc2c1)NC(=O)[C@H](Cc1ccc(OCCNC(C)=O)cc1)NC(=O)[C@@H](NC(=O)[C@H](CCC(N)=O)NC(=O)[C@H](Cc1c[nH]c2ccccc12)NC(=O)[C@@H](NC(=O)[C@H](CCC(N)=O)NC(=O)[C@@H](NC(C)=O)C(C)(C)S)[C@@H](C)O)C(C)(C)S)C(=O)N[C@@H](CC(N)=O)C(=O)N[C@@H](CC(N)=O)C(N)=O`, the IC50 at Interleukin-23 receptor [1] and on Interleukin-23 receptor [2] was under 10 nM throughout. Besides, the half-life at 20 µM in series [3] and in series [4] was over 6 h throughout.

As for `CC(=O)NCCCC[C@H](NC(=O)[C@](C)(CO)NC(=O)[C@H](Cc1ccc2ccccc2c1)NC(=O)[C@H](Cc1ccc(OCCN)cc1)NC(=O)[C@@H]1CSCC[C@H](NC(C)=O)C(=O)N[C@@H](CCC(N)=O)C(=O)N[C@@H]([C@@H](C)O)C(=O)N[C@@H](Cc2c[nH]c3ccccc23)C(=O)N[C@@H](CCC(N)=O)C(=O)N1)C(=O)N[C@@H](CC(N)=O)C(=O)NCC(N)=O`, the IC50 on Interleukin-23 receptor [1] and on Interleukin-23 receptor [2] was under 10 nM in each case. Besides, the half-life at 20 µM in series [3] is 2 to 3 h; in series [4], under 1 h.

In the case of `CC(=O)N[C@H](C(=O)N[C@@H](CCC(N)=O)C(=O)N[C@H](C(=O)N[C@@H](Cc1c[nH]c2ccccc12)C(=O)N[C@@H](CCC(N)=O)C(=O)N[C@H](C(=O)N[C@@H](Cc1ccc(OCCN)cc1)C(=O)N[C@@H](Cc1ccc2ccccc2c1)C(=O)NC(C)(C)C(=O)N[C@@H](CCC(=O)O)C(=O)N[C@@H](CC(N)=O)C(=O)N[C@@H](CC(N)=O)C(N)=O)C(C)(C)S)[C@@H](C)O)C(C)(C)S`, the IC50 at Interleukin-23 receptor [1] and on Interleukin-23 receptor [2] was under 10 nM in each case. Further, the half-life at 20 µM in series [3] and in series [4] was over 6 h in each case.

`CC(=O)NCCCC[C@H](NC(=O)[C@](C)(CCCCNC(C)=O)NC(=O)[C@H](Cc1ccc2ccccc2c1)NC(=O)[C@H](Cc1ccc(OCCNC(C)=O)cc1)NC(=O)[C@@H](NC(=O)[C@H](CCC(N)=O)NC(=O)[C@H](Cc1c[nH]c2ccccc12)NC(=O)[C@@H](NC(=O)[C@H](CCC(N)=O)NC(=O)[C@@H](NC(C)=O)C(C)(C)S)[C@@H](C)O)C(C)(C)S)C(=O)N[C@@H](CC(N)=O)C(=O)NCC(N)=O`: the half-maximal inhibitory concentration (IC50) on Interleukin-23 receptor [1] and on Interleukin-23 receptor [2] was under 10 nM each time. For the same compound, the half-life at 20 µM in series [3] and in series [4] was over 6 h throughout.

Consider `CC(=O)NCCCC[C@H](NC(=O)[C@](C)(CCCCN)NC(=O)[C@H](Cc1c[nH]c2ccccc12)NC(=O)[C@H](Cc1ccc(O)cc1)NC(=O)[C@@H](NC(=O)[C@H](CCC(N)=O)NC(=O)[C@H](Cc1c[nH]c2ccccc12)NC(=O)[C@@H](NC(=O)[C@H](CCC(N)=O)NC(=O)[C@@H](NC(C)=O)C(C)(C)S)[C@@H](C)O)C(C)(C)S)C(=O)N[C@@H](CC(N)=O)C(=O)NCC(N)=O`, for which the values for the half-maximal inhibitory concentration (IC50) at Interleukin-23 receptor [1] and at Interleukin-23 receptor [2] were 100 to 1000 nM and 25 to 100 nM, respectively. The half-life at 20 µM in series [3] and in series [4] was over 6 h each time.

Regarding `CC(=O)N[C@H]1CCSC[C@@H](C(=O)N[C@@H](Cc2ccc(OCCN)cc2)C(=O)N[C@@H](Cc2c[nH]c3ccccc23)C(=O)N[C@@](C)(CC(C)C)C(=O)N[C@@H](CCC(=O)O)C(=O)N[C@@H](CC(N)=O)C(=O)NCC(N)=O)NC(=O)[C@H](CCC(N)=O)NC(=O)[C@H](Cc2c[nH]c3ccccc23)NC(=O)[C@H]([C@@H](C)O)NC(=O)[C@H](CCC(N)=O)NC1=O`, the half-inhibitory concentration (IC50) at Interleukin-23 receptor [1] and on Interleukin-23 receptor [2] was under 10 nM each time. For the same compound, the half-life at 20 µM in series [3] is 3 to 6 h; in series [4], over 6 h.

In the case of `CC(=O)NCCCC[C@H](NC(=O)[C@](C)(CC(C)C)NC(=O)[C@H](Cc1ccc2ccccc2c1)NC(=O)[C@H](Cc1ccc(OCCNC(C)=O)cc1)NC(=O)[C@@H](NC(=O)[C@H](CCC(N)=O)NC(=O)[C@H](Cc1c[nH]c2ccccc12)NC(=O)[C@@H](NC(=O)[C@H](CCC(N)=O)NC(=O)[C@@H](NC(C)=O)C(C)(C)S)[C@@H](C)O)C(C)(C)S)C(=O)N[C@@H](CC(N)=O)C(=O)N[C@@H](CC(N)=O)C(N)=O`, the IC50 on Interleukin-23 receptor [1] and at Interleukin-23 receptor [2] was under 10 nM throughout. The half-life at 20 µM in series [3] and in series [4] was over 6 h each time.

Consider `CC(=O)NCCCC[C@](C)(NC(=O)[C@H](Cc1ccc2ccccc2c1)NC(=O)[C@H](Cc1ccc(OCCNC(C)=O)cc1)NC(=O)[C@@H](NC(=O)[C@H](CCC(N)=O)NC(=O)[C@H](Cc1c[nH]c2ccccc12)NC(=O)[C@@H](NC(=O)[C@H](CNC(C)=O)NC(=O)[C@@H](NC(C)=O)C(C)(C)S)[C@@H](C)O)C(C)(C)S)C(=O)N[C@@H](CCC(=O)O)C(=O)N[C@@H](CC(N)=O)C(=O)NCC(N)=O`, for which the figures for the IC50 at Interleukin-23 receptor [1] and at Interleukin-23 receptor [2] were 10 to 25 nM and under 10 nM, respectively. Moreover, the half-life at 20 µM in series [3] and in series [4] was over 6 h throughout.

On to `CC(=O)N[C@H]1CCSC[C@@H](C(=O)N[C@@H](Cc2ccc(OCCN)cc2)C(=O)N[C@@H](Cc2ccc3ccccc3c2)C(=O)N[C@@](C)(CCCCN)C(=O)N[C@@H](CCCCNC(=O)c2ccccc2)C(=O)N[C@@H](CC(N)=O)C(=O)NCC(N)=O)NC(=O)[C@H](CCC(N)=O)NC(=O)[C@H](Cc2c[nH]c3ccccc23)NC(=O)[C@H]([C@@H](C)O)NC(=O)[C@H](CCC(N)=O)NC1=O`, for which the IC50 at Interleukin-23 receptor [1] and on Interleukin-23 receptor [2] was under 10 nM in each case. For the same compound, the half-life at 20 µM in series [3] was over 6 h; in series [4], 3 to 6 h.

On to `CC(=O)NCCCC[C@H](NC(=O)C(C)(C)NC(=O)[C@H](Cc1cccc2ccccc12)NC(=O)[C@H](Cc1ccc(OCCN)cc1)NC(=O)[C@@H]1CSCC[C@H](NC(C)=O)C(=O)N[C@@H](CCC(N)=O)C(=O)N[C@@H]([C@@H](C)O)C(=O)N[C@@H](Cc2c[nH]c3ccccc23)C(=O)N[C@@H](CCC(N)=O)C(=O)N1)C(=O)N[C@@H](CC(N)=O)C(=O)NCC(N)=O`, for which the IC50 was 25 to 100 nM on Interleukin-23 receptor [1] and 10 to 25 nM on Interleukin-23 receptor [2]. In addition, the half-life at 20 µM in series [3] and in series [4] was over 6 h each time.

Take `CC(=O)NCCCC[C@H](NC(=O)C(C)(C)NC(=O)[C@H](Cc1ccc2ccccc2c1)NC(=O)[C@H](Cc1ccc(OCCNC(C)=O)cc1)NC(=O)[C@@H](NC(=O)[C@H](CCC(N)=O)NC(=O)[C@H](Cc1c[nH]c2ccccc12)NC(=O)[C@@H](NC(=O)[C@H](CCC(N)=O)NC(=O)[C@@H](NC(C)=O)C(C)(C)S)[C@@H](C)O)C(C)(C)S)C(=O)N[C@@H](CC(N)=O)C(=O)N[C@@H](CCC(N)=O)C(N)=O`: the IC50 at Interleukin-23 receptor [1] and on Interleukin-23 receptor [2] was under 10 nM each time. Moreover, the half-life at 20 µM in series [3] and in series [4] was over 6 h throughout.

The values above are taken from ChEMBL document CHEMBL4417631, “Oral peptide inhibitors of interleukin-23 receptor and their use to treat inflammatory bowel diseases” (2017).
